According to patent US20120149574A1, “Methods and Compositions for Managing Water Quality in a Body of Water” (priority 2010, published 2012):

Tests used:
algae [1] = assay: Comparative pond treatment vs. copper sulfate alone, multiple applications: algae; type: in vivo, green algae (Chlorophyta), cyanobacteria (Cyanophyta)
Description: (§1) One pond was treated with a liquid composition prepared as in Example 1 (hereinafter termed “Composition E1”) and the other with copper sulfate pentahydrate. Both ponds were treated with the same concentration of copper on the same days. Five algaecide applications, each approximately one week apart, were conducted on the corresponding pond as a surface spray. The first application was a 1 ppm copper rate, whereas the following applications were all 0.5 ppm copper. All five treatments were completed by the 34th day following the initial treatment (“DAT”), though water sampling continued to evaluate changes in algae growth and water clarity. Representative water samples were periodically collected from each of the ponds at the same durations following treatments. […] As mentioned previously, when used alone, alum is generally applied at such high doses that a buffer is concurrently applied to prevent dramatic changes in water quality that can result in acute toxicity to aquatic organisms.

[2] = Comparative pond treatment, single application: turbidity and total phosphorus; conditions: single application 1 ppm copper
Description: (§2) Two ponds of similar dimensions (0.1 surface acres, 4 foot average depth) and similar water character, located beside each other, were used in this experiment. Both ponds were treated once (immediately following the initial sampling event) with the same concentration of copper, 1 ppm, and monitored through time. One pond was treated with Composition E1 and the other with copper sulfate pentahydrate. The objectives were 1) to evaluate the change in algae assemblage composition, 2) to measure algaecidal impacts and re-growth of algae, 3) to measure changes in phosphorus and turbidity following treatment.

algae [3] = assay: Comparative pond treatment vs. copper sulfate alone, single application: algae; type: in vivo, green algae (Chlorophyta), cyanobacteria (Cyanophyta)
Description: as §2

[4] = Comparative pond treatment, multiple applications: turbidity, phosphorus, water quality; conditions: five applications, FIGS. 11 and 12
Description: as §1

SMILES: O.O.O.O.O.O=S(=O)([O-])[O-].[Cu+2] [copper sulfate, copper sulfate pentahydrate]
- chlorophyll levels following cessation of the algaecide treatments (algae [1]; after fifth application (34 DAT) (FIG. 9)): rapidly and significantly increased
- algal assemblage composition (algae [1]; during and after five applications (FIGS. 13 and 14)): cyanobacteria (Cyanophyta) became dominant
- chlorophyll a concentration, highest measurements (algae [1]; five applications (1 ppm then 0.5 ppm copper), sampling to 69 DAT (FIG. 9), copper sulfate: many measurements, Composition E1: on one occasion): exceeding 100 μg/L
- total phosphorus ([2]; 7 DAT (FIG. 17)): little change
- total phosphorus ([2]; 14 DAT vs initial (FIG. 17)): notable increase from initial levels
- algal assemblage following treatment (algae [3]; single application 1 ppm copper (FIGS. 18 and 19)): remained dominated by cyanobacteria
- decrease of treated algae (algae [3]; single application 1 ppm copper, 7 DAT): 78%
- chlorophyll a (algae [3]; single application 1 ppm copper, 7 DAT (FIG. 15)): significantly decreased
- chlorophyll a (algae [3]; single application 1 ppm copper, 14 DAT (FIG. 15)): significantly higher
- increase in algal densities (algae [3]; single application 1 ppm copper, between 7 and 14 DAT): 350%
- total phosphorus (TP) and free reactive phosphorus (FRP) concentrations over time [4]: substantially higher than the Composition E1-treated pond
